The values that follow come from patent US9556165B2 (priority 2012, dated 2017).

Holding throughout (type): cell-based
In one test the test system is E. coli ATCC25922. Nature of the test: MIC determination, broth microdilution (CLSI). As to conditions: Escherichia coli, ATCC25922, strain 1.
Another test has as its system K. pneumoniae 60. Put plainly: MIC determination, broth microdilution (CLSI). As to conditions: Klebsiella pneumoniae, 60, strain 2.
In another test the test system is E. cloacae 34654. Nature of the test: MIC determination, broth microdilution (CLSI). The settings on record: Enterobacter cloacae, 34654, strain 3. On the technique in general: In broth dilution the organism is exposed to a series of concentrations in liquid medium.
The next test has as its system C. freundii K21/3034. Nature of the test: MIC determination, broth microdilution (CLSI). As to conditions: Citrobacter freundii, K21/3034, strain 4.
The next test concerns M. morganii 126/3048. Nature of the test: MIC determination, broth microdilution (CLSI). As to conditions: Morganella morganii, 126/3048, strain 5.
A further test relates to P. aeruginosa PAO1. Nature of the test: MIC determination, broth microdilution (CLSI). As to conditions: Pseudomonas aeruginosa, PAO1, strain 6.
For test [1], the system named is P. aeruginosa 2297 (AmpC wt). Put plainly: MIC determination, broth microdilution (CLSI). The settings on record: Pseudomonas aeruginosa, strain 7.
For test [2], the system named is P. aeruginosa 2297-con (AmpC derepressed). Put plainly: MIC determination, broth microdilution (CLSI). The settings on record: Pseudomonas aeruginosa, read-out: strain 8 MIC, strain 8.
A further test deals with A. baumannii ATCC15308. Put plainly: MIC determination, broth microdilution (CLSI). The settings on record: Acinetobacter baumannii, ATCC15308, strain 9.
Another test relates to S. maltophilia ICB7569. Put plainly: MIC determination, broth microdilution (CLSI). The settings on record: Stenotrophomonas maltophilia, ICB7569, strain 10.
The subject of another test is S. aureus 133. Put plainly: MIC determination, broth microdilution (CLSI).
Another test has as its system H. influenzae ATCC 49247. Nature of the test: MIC determination, broth microdilution (CLSI). As to conditions: Haemophilus influenzae, ATCC49247, strain 12; broth microdilution; read-out: MIC strain 12 (H. influenzae ATCC 49247).
Another test concerns S. pneumoniae 113. Nature of the test: MIC determination, broth microdilution (CLSI). As to conditions: Streptococcus pneumoniae, 113, strain 13; broth microdilution; read-out: MIC strain 13 (S. pneumoniae 113).
For the next test, the system named is B. fragilis 6688. Put plainly: MIC determination, broth microdilution (CLSI). The settings on record: Bacteroides fragilis, 6688, strain 15; broth microdilution; read-out: MIC strain 15 (B. fragilis 6688).
The subject of another test is C. perfringens DSM756. Put plainly: microbe, parasite or virus in culture. As to conditions: Clostridium perfringens, DSM756, read-out: MIC strain 16 (C. perfringens DSM756), strain 16; broth microdilution.
The next test has as its system E. coli J62. Put plainly: MIC determination, broth microdilution (CLSI). As to conditions: Escherichia coli, J62, strain 17; broth microdilution; read-out: MIC strain 17 (E. coli J62).
A further test deals with E. coli J62-TEM-3. Nature of the test: MIC determination, broth microdilution (CLSI). The settings on record: Escherichia coli, J62TEM3, read-out: MIC strain 18 (E. coli J62-TEM-3), strain 18; broth microdilution.
The test system of the next test is Bacteria. Nature of the test: MIC determination in combination with β-lactamase inhibitors (constant 4 μg/mL).
[3] abbreviates: Staphylococcus aureus, 133, strain 11, read-out: strain 11 MIC.
Setting [4] is: Staphylococcus aureus, 133, strain 14, broth microdilution, read-out: MIC strain 14 (S. aureus 133).

Values after ≈ are worked out from the molar mass of the structure shown. Read-outs that look alike come from different tables or passages of the source.

On to `CC1(C)[C@H](NC(=O)/C(=N\OCCOc2ccc(C(=N)NCC(=O)O)cc2)c2csc(N)n2)C(=O)N1OS(=O)(=O)O` [Example 73, N-[{4-[2-({[(1Z)-1-(2-Amino-1,3-thiazol-4-yl)-2-{[(3S)-2,2-dimethyl-4-oxo-1-(sulfo-oxy)azetidin-3-yl]amino}-2-oxoethylidene]amino}oxy)ethoxy]phenyl}(imino)methyl]glycine], for which the MIC with E. coli ATCC25922 was 0.5 µg/mL (≈ 0.834 µM); in the test on K. pneumoniae 60, 0.5 µg/mL (≈ 0.834 µM); against E. cloacae 34654 it was 0.5 µg/mL (≈ 0.834 µM); with C. freundii K21/3034, 0.5 µg/mL (≈ 0.834 µM); in the test with M. morganii 126/3048 it was 0.5 µg/mL (≈ 0.834 µM); against P. aeruginosa PAO1, 16 µg/mL (≈ 26.7 µM). Moreover, the MIC in test [1] was 32 µg/mL (≈ 53.4 µM); in test [2], 32 µg/mL (≈ 53.4 µM); against A. baumannii ATCC15308, 16 µg/mL (≈ 26.7 µM); against S. maltophilia ICB7569 it was 32 µg/mL (≈ 53.4 µM); with S. aureus 133 (setting [3]) it was ≤ 0.063 µg/mL; with S. aureus 133 (setting [4]), 32 µg/mL (≈ 53.4 µM). Also, the MIC in the test on H. influenzae ATCC 49247 is 0.25 µg/mL (≈ 0.417 µM); in the test on S. pneumoniae 113 it was ≤ 0.063 µg/mL; with B. fragilis 6688, 8 µg/mL (≈ 13.3 µM); in the test with C. perfringens DSM756 it was 4 µg/mL (≈ 6.67 µM); with E. coli J62, 1 µg/mL (≈ 1.67 µM); with E. coli J62-TEM-3, 32 µg/mL (≈ 53.4 µM). For the same compound, the “MIC strain 19 (E. coli J62-TEM-3 + 4 μg/mL clavulanic acid)” value in the test on Bacteria worked out at 0.5 µg/mL. Also, the “MIC strain 20 (E. coli J62-TEM-3 + 4 μg/mL sulbactam)” value with Bacteria is 0.5 µg/mL. Moreover, the “MIC strain 21 (E. coli J62-TEM-3 + 4 μg/mL tazobactam)” value in the test with Bacteria stood at 1 µg/mL.

Take `Cc1sc(C(=N)N)nc1OCCO/N=C(\C(=O)N[C@@H]1C(=O)N(OS(=O)(=O)O)C1(C)C)c1csc(N)n1` [Example 74, (2Z)-2-(2-Amino-1,3-thiazol-4-yl)-2-({2-[(2-carbamimidoyl-5-methyl-1,3-thiazol-4-yl)oxy]ethoxy}imino)-N-[(3S)-2,2-dimethyl-4-oxo-1-(sulfooxy)azetidin-3-yl]ethanamide]: the MIC in the test with E. coli ATCC25922 came out at 1 µg/mL (≈ 1.78 µM); in the test with K. pneumoniae 60 it was 2 µg/mL (≈ 3.55 µM); against E. cloacae 34654 it was 4 µg/mL (≈ 7.11 µM); against C. freundii K21/3034, 1 µg/mL (≈ 1.78 µM); in the test with M. morganii 126/3048 it was 1 µg/mL (≈ 1.78 µM); with P. aeruginosa PAO1 it was 16 µg/mL (≈ 28.4 µM). Besides, the MIC was 32 µg/mL (≈ 56.9 µM) in test [1]; 32 µg/mL (≈ 56.9 µM) in test [2]; 2 µg/mL (≈ 3.55 µM) against A. baumannii ATCC15308; 16 µg/mL (≈ 28.4 µM) against S. maltophilia ICB7569; ≤ 0.063 µg/mL in the test with S. aureus 133 (setting [3]); 32 µg/mL (≈ 56.9 µM) in the test on S. aureus 133 (setting [4]). Moreover, the MIC in the test on H. influenzae ATCC 49247 was 0.25 µg/mL (≈ 0.444 µM); in the test on S. pneumoniae 113, ≤ 0.063 µg/mL; in the test with B. fragilis 6688 it was 2 µg/mL (≈ 3.55 µM); in the test on C. perfringens DSM756, 2 µg/mL (≈ 3.55 µM); in the test on E. coli J62, 4 µg/mL (≈ 7.11 µM); in the test with E. coli J62-TEM-3, 16 µg/mL (≈ 28.4 µM). In addition, in the test with Bacteria, the “MIC strain 19 (E. coli J62-TEM-3 + 4 μg/mL clavulanic acid)” value was 1 µg/mL. In addition, in the test on Bacteria, the “MIC strain 20 (E. coli J62-TEM-3 + 4 μg/mL sulbactam)” value stood at 1 µg/mL. For the same compound, the “MIC strain 21 (E. coli J62-TEM-3 + 4 μg/mL tazobactam)” value in the test on Bacteria stood at 2 µg/mL.

`CC1(C)[C@H](NC(=O)/C(=N\OCCOc2ccc(C(=N)NCc3ccccn3)cc2)c2csc(N)n2)C(=O)N1OS(=O)(=O)O` [Example 76, (2Z)-2-(2-Amino-1,3-thiazol-4-yl)-N-[(3S)-2,2-dimethyl-4-oxo-1-(sulfooxy)azetidin-3-yl]-2-[(2-{4-[N-(pyridin-2-ylmethyl)carbamimidoyl]phenoxy}ethoxy)imino]ethanamide]: the MIC was 0.5 µg/mL (≈ 0.79 µM) against E. coli ATCC25922; 0.5 µg/mL (≈ 0.79 µM) against K. pneumoniae 60; 1 µg/mL (≈ 1.58 µM) against E. cloacae 34654; 0.5 µg/mL (≈ 0.79 µM) against C. freundii K21/3034; 1 µg/mL (≈ 1.58 µM) against M. morganii 126/3048; 16 µg/mL (≈ 25.3 µM) with P. aeruginosa PAO1. For the same compound, the MIC in test [1] is 16 µg/mL (≈ 25.3 µM); in test [2], 32 µg/mL (≈ 50.6 µM); in the test with A. baumannii ATCC15308, 4 µg/mL (≈ 6.32 µM); in the test with S. maltophilia ICB7569 it was 16 µg/mL (≈ 25.3 µM); in the test with S. aureus 133 (setting [3]) it was ≤ 0.063 µg/mL; with S. aureus 133 (setting [4]) it was 4 µg/mL (≈ 6.32 µM). In addition, the MIC was 0.25 µg/mL (≈ 0.395 µM) in the test with H. influenzae ATCC 49247; ≤ 0.063 µg/mL with S. pneumoniae 113; 4 µg/mL (≈ 6.32 µM) with B. fragilis 6688; 2 µg/mL (≈ 3.16 µM) with C. perfringens DSM756; 0.5 µg/mL (≈ 0.79 µM) in the test on E. coli J62; 8 µg/mL (≈ 12.6 µM) in the test with E. coli J62-TEM-3. Further, in the test on Bacteria, the “MIC strain 19 (E. coli J62-TEM-3 + 4 μg/mL clavulanic acid)” value is 0.5 µg/mL. The “MIC strain 20 (E. coli J62-TEM-3 + 4 μg/mL sulbactam)” value in the test on Bacteria was found to be 0.5 µg/mL. Also, in the test on Bacteria, the “MIC strain 21 (E. coli J62-TEM-3 + 4 μg/mL tazobactam)” value stood at 0.5 µg/mL.
